This note sets out measurements from patent publication US7410995B1, “N-linked sulfonamide of heterocyclic thioesters for vision and memory disorders” (GPI Nil Holdings Inc., priority 1998, dated 2008).

Entries after “also recorded” stand apart in the source; their conditions may differ.

Data set [1] can be described thus: Morris watermaze spatial learning and memory in aged rodents (Example 19). Type of data set: in vivo, C57BL/6N-Nia mice. The conditions noted are these: aged impaired mice, daily 10 mg/kg GPI-1046, retention testing after 3 weeks of dosing; listed as GPT-1046, 10 mg/kg. From the text: In all of these tasks, a proportion of aged rats or mice perform as well as the vast majority of young control animals, while other animals display severe impairments in memory function compared to young animals. […] Specifically, rodent spatial learning and memory decline during aging has been accepted by many investigators as an intriguing correlative animal model of human senile dementia. Cholinergic function in the hippocampus has been extensively studied as a component of spatial learning in rodents, and declining hippocampal cholinergic function has been noted in parallel with the development of learning and memory impairments. […] Also, reports on age-related deficits of hippocampal long-term potentiation (LTP)-induction, a reduction in theta rhythm frequency, a loss of experience-dependent plasticity of hippocampal place-units, and reductions in hippocampal protein kinase C are in keeping with the concept that no single underlying pathology can be identified as the cause of age-related behavioral impairment in rodents. However, the various experimental therapeutic approaches that have been undertaken to improve memory function in aged rodents have been somewhat slanted towards the cholinergic hypothesis. The Morris watermaze is widely used for assessing spatial memory formation and retention in experimental animals. […]

For the next data set, the system named is retina. Briefly: Streptozotocin induced diabetes: retinal neovascularization and neuron loss (FIG. 9). Type of data set: in vivo.
Data set [2] can be described thus: Peripheral sensory neuropathy in streptozotocin-induced diabetic rat, hot plate and tail flick (Example 18). The format is in vivo, Wistar rats. The following applies: lesioned animals treated for 6 weeks at 10 mg/kg s.c. How it is done:
The procedure involved using Male Wistar rats which were given a single injection of streptozotocin (65 mg/kg i.v.). Blood glucose levels were determined weekly for the first three weeks and on the last week of the experiment. Animals were evaluated weekly for signs of sensory neuropathy using the conventional hot plate and tail flick apparatus test procedures.

In data set [3] the test system is retinal ganglion cells. Briefly: Retinal ischemia: retinal ganglion cell, optic nerve axon and myelin degeneration (FIGS. 1, 2). Type of data set: in vivo, rats. From the text: Retinal ganglion cells were retrogradely labeled in adult rats by bilateral injection of fluorogold in their lateral geniculate nuclei. Labeled ganglion cells in the normal rat retina appear as white profiles against the dark background (FIG. 1A). Complete retinal ischemia was produced by infusing normal saline solution into the retinal vitreous cavity of each eye until the intraocular pressure exceeded arterial blood pressure. 28 days after the ischemic episode extensive degeneration of retinal ganglion cell was evidenced by massive reduction in the density of fluorogold labeled cells (FIG. 1B). […] FIG. 2. […] Optic nerves from vehicle treated cases examined 28 days after a 1 hour retinal ischemic episode are characterized by a decreased density of optic nerve axons and the appearance of numerous degenerating myelin figures (bright white filled circles). […] FIG. 3. […] Few spared fluorogold pre labeled ganglion cells are present in vehicle treated cases (large white figures) among a population of small microglia that digest the debris of the degenerating cells and take up the fluorogold label (FIG. 3A). […] FIG. 4. […] 90 days after transection few ganglion cell axons remain within the optic nerve (FIG. 4B), representing only 5.6% of the normal population. The loss of axons reflects both the death of retinal ganglion cells and the regression or “dying back” of the axons of ˜70% of the small surviving ganglion cell population into the retina itself (Table 1). […] FIG. 5. […] FIG. 6. […] 90 days after transection extensive degeneration of myelin is evident in vehicle treated cases, characterized by the loss of fascicular organization and the appearance of numerous large dense degenerating myelin figures (FIG. 6B, upper right). […] FIG. 7. FKBP-12 immunohistochemistry labels oligodendroglia (large dark cells with fibrous processes), the cells which produce myelin, located between the fascicles of optic nerve fibers, and also some optic nerve axons. FIG. 8. […]

In data set [4] the test system is retinal ganglion cells and optic nerve axons. The data set can be described thus: In vivo retinal ganglion cell and optic nerve axon tests after optic nerve transection (Example 6, Table 1). The following applies: for Proximal optic nerve myelin basic protein Density: SEM, % areal coverage of optic nerve cross section; for increased ON axon density: adjusted for optic nerve diameter; for Distal optic nerve stump shrinkage: cross sectional area compared to sham control; for Distal optic nerve myelin basic protein Density: cross sectional area multiplied by myelin density. Also on record: species or system Sprague Dawley rats. From the text: All eyes and optic nerves stumps were removed.

Data set [5] concerns retinal ganglion cells. Briefly: Retinal ganglion cell survival and axonal dying back following optic nerve transection (Example 17). Type of data set: in vivo, Sprague Dawley rats. The following applies: GPI-1046 10 mg/kg/day s.c. for 28 days. From the text: Transection of the mammalian optic nerve results in a brief period of abortive regeneration, but the majority of axotomized neurons die and the axons from many persisting ganglion cells die back beyond the optic nerve head.

The subject of data set [6] is retinal ganglion cell axons. The data set can be described thus: Protection of retinal ganglion cell axons from degeneration following optic nerve transection (Table V). Type of data set: in vivo. The following applies: ± SEM. The text has this: Efficacy of representative compounds from different immunophilin ligand series in protecting retinal ganglion cell axons from degeneration following optic nerve transection is set forth in Table V.

Another data set addresses FKBP12 (Homo sapiens, UniProt P62942). The data set can be described thus: Ki test procedure: inhibition of peptidyl-prolyl isomerase (rotamase) activity, chymotrypsin-coupled assay. The format is biochemical. The following applies: Table V comments; read-out: Ki rotomase. The text has this: The inhibition of the prolyl peptidyl cis-trans isomerase activity of FKBP may be measured as an indicator of this affinity. Inhibition of the peptidyl-prolyl isomerase (rotamase) activity of the compounds used in the inventive methods and pharmaceutical compositions can be evaluated by known methods described in the literature (Harding et al., Nature, 1989, 341:758-760; Holt et al. J. Am. Chem. Soc., 115:9923-9938). […] The inhibition of this reaction caused by the addition of different concentrations of inhibitor is determined, and the data is analyzed as a change in first-order rate constant as a function of inhibitor concentration to yield the apparent Ki values. […] The reaction is initiated by the addition of […] of substrate (succinyl-[…]-nitroanilide, 5 mg/mL in 2.35 mM LiCl in trifluoroethanol). The absorbance at 390 nm versus time is monitored for 90 seconds using a spectrophotometer and the rate constants are determined from the absorbance versus time data files.

Data set [7] in a line: Clearance (Table V comments). The format is in vitro ADME.

Chain of FKBP12 (P62942 whole entry, species assumed): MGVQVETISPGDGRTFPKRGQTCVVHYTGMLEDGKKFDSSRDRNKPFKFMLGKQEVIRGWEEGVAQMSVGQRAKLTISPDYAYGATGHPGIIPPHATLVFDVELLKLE

As to `CCC(C)(C)C(=O)C(=O)N1CCC[C@H]1C(=O)OCCCc1cccnc1` [GPI 1046, 3-(3-pyridyl)-1-propyl (2s)-1-(3,3-dimethyl-1,2-dioxopentyl)-2-pyrrolidinecarboxylate], the “spatial memory performance (swim distance), retention testing” value in [1] is listed as “no longer any statistically significant difference”. Also, in the data set on retina (28 day GPI 1046 treatment beginning 8 weeks after onset of diabetes, compared to streptozotocin/vehicle), the “loss of neurons in the INL and GCL” value was “protects neurons in the inner nuclear layer (INL) and ganglion cell layer (GCL) from degeneration”. Besides, the “neovascularization in the retina (PR, ONL, OPL, INL)” value in the data set with retina (28 day GPI 1046 treatment beginning 8 weeks after onset of streptozotocin induced diabetes) is reported as “reduced neovascularization; also recorded: decreases the extent of neovascularization”. In addition, the “latency, hot plate and tail flick” value in data set [2] is reported as “improvement in latency”. In the data set on retinal ganglion cells [3] (GPI 1046 10 mg/kg s.c. 1 hour prior to ischemia and 10 mg/kg/day for next four days, 28 days after ischemia), the “protection of retinal ganglion cells (fluorogold labeled) against degeneration” value is given as “noticeable protection of a large proportion of the vulnerable ganglion cell population; also recorded: protects retinal ganglion cells against degeneration”. The “density of degenerating myelin figures” value in the data set on retinal ganglion cells [3] (same retinal ischemia cases, 28 days after 1 hour ischemic episode) is given as “dramatically decreased”. Moreover, in the data set with retinal ganglion cells [3] (same retinal ischemia cases, 28 days after 1 hour ischemic episode, toluidine blue staining), the “degeneration of optic nerve axons” value is “protected the majority of optic nerve axons from degeneration; also recorded: prevents degeneration of optic nerve axons and myelin”. The “quantitative recovery in myelin density” value in data set [4] (GPI 1046 for the first 14 days after transection, proximal stump) worked out at 1.60. For the same compound, in data set [4] (GPI 1046 through the first 28 days after transection), the “myelin levels, distal stump” value is given as ~99 % of normal levels. Moreover, in [4] (ONT/14 days GPI 1046), the “Proximal optic nerve myelin basic protein Density” value is listed as “did not alter the pattern of myelin degeneration”, the “increased ON axon density” value is reported as 1.5 X, the “Distal optic nerve stump shrinkage” value is “did not protect against shrinkage of the distal stump” and the “Distal optic nerve myelin basic protein Density” value is reported as “slightly increase the density of myelin”. In data set [4] (ONT/28 days GPI 1046), the “Proximal optic nerve myelin basic protein Density” value is listed as “prevents myelin degeneration in the proximal stump”, the “increased ON axon density” value came out at 5.0 X, the “Distal optic nerve stump shrinkage” value is “prevented cross sectional shrinkage of the distal stump” and the “Distal optic nerve myelin basic protein Density” value is on record as “prevents myelin degeneration in the distal stump”. In the data set on retinal ganglion cells [5] (90 days after transection), the “axons of protected neurons in the proximal stump (RT97)” value is “preserved the axons of virtually all protected neurons”. Moreover, the “ganglion cell population spared” value with retinal ganglion cells [5] (sacrificed 90 days after transection) is reported as 25%.
Regarding `CCC(C)(C)C(=O)C(=O)N1CCS[C@@H]1C(=O)OCCCc1cccnc1` [F], the “RT 97 RGC axon density 14 days after ON transection” value (“RT 97 RGC axon density 14 days” below) in data set [6] is 55.1% ± 5.9% SEM.
For `CCC(C)(C)C(=O)C(=O)N1CCCC[C@H]1C(=O)SCCC(c1ccccc1)c1ccccc1` [Compound K], the “RT 97 RGC axon density 14 days” value in data set [6] is 13.0% ± 4.2% SEM.
Same read-out and setting: the result for `O=C(OCCCc1cccnc1)[C@@H]1CCCN1C(=S)NC1CCCCC1` [I] reads 23.8% ± 5.3% SEM; that for `CCC(C)(C)C(=O)C(=O)N1CCCC[C@H]1C(N)=O` [H], 30.3% ± 8.0% SEM.
Take `CCC(C)(C)C(=O)C(=O)N1CCC[C@H]1C(=O)O` [L]: the inhibitory constant (Ki) at FKBP12 was above 7740 nM. Also, the “RT 97 RGC axon density 14 days” value in data set [6] is given as 7.8% ± 3.0% SEM.
With `CCC(C)(C)C(=O)C(=O)N1CCCCC1C(=O)OC(CCc1ccccc1)CCc1ccccc1` (centres unmarked) [E], in data set [7], the Clearance stood at 41.8 µL/min.
Turning to `CCC(C)(C)C(=O)C(=O)N1CCC[C@H]1C(=O)SCCC(c1ccccc1)c1ccccc1` [M], the “RT 97 RGC axon density 14 days” value in [6] is listed as −6.3% ± 3.9% SEM.
Same read-out and setting: the result for `O=C(SCCCc1ccccc1)[C@@H]1CCCN1S(=O)(=O)Cc1ccccc1` [C] reads 60.4% ± 3.1% SEM.
Compound “3-(3-pyridyl)-1-propyl (2s)-1-(3,3-dimethyl-1,2-dioxopentyl)-2-pyrrolidinecarboxylate [GPI 1046]” registered a Clearance in [7] of 3.5 µL/min. In addition, the Ki at FKBP12 came to 7.5 nM. The “RT 97 RGC axon density 14 days” value in data set [6] is reported as 60.5% ± 3.9 SEM.
As for `O=C(SCCCc1ccccc1)[C@@H]1CCCN1C(=O)NC12CCC(CC1)C2` [B], the inhibitory constant (Ki) on FKBP12 was 149 nM. The “RT 97 RGC axon density 14 days” value in [6] is on record as 100.0% ± 5.2% SEM.
`CCC(C)(C)C(=O)C(=O)N1CCCC[C@H]1C(=O)O` [G]: the “RT 97 RGC axon density 14 days” value in data set [6] is listed as 34.0% ± 4.8% SEM.
In the case of `CCC(C)(C)C(=O)C(=O)N1CCC[C@H]1C(=O)CCCCc1cccnc1` [J], the “RT 97 RGC axon density 14 days” value in data set [6] is listed as 15.8% ± 4.8% SEM.
